This is an account of results in ChEMBL document CHEMBL5370651, “Integrating Taxonomic and Chemical Diversity of Mangrove-Associated Ascomycetes to Discover or Repurpose Bioactive Natural Products” (J Nat Prod, 2023).

Converted amounts (≈) assume the structure as drawn.

Experiment [1] has as its target T1, Tyrosine-protein phosphatase non-receptor type 1 (Homo sapiens) (UniProt P18031).
T1 sequence (whole entry): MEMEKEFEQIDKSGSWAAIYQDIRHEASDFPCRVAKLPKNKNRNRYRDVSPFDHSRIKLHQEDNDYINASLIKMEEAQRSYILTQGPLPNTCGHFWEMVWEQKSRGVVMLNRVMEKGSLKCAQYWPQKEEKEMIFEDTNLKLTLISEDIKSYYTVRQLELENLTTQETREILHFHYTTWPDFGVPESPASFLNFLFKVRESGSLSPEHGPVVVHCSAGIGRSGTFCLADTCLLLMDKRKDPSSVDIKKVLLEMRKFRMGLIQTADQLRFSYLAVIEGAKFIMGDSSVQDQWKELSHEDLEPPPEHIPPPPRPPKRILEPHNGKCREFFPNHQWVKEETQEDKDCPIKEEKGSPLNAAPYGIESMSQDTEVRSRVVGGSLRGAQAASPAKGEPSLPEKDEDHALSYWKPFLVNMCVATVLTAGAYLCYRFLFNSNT
Kind of experiment: (§1) Inhibition of human PTP1B (1 to 400 residues) using pNPP as substrate preincubated for 10 mins followed by substrate addition and measured after 20 mins.

The target of experiment [2] is T2, Tyrosine-protein phosphatase non-receptor type 1 (Homo sapiens, UniProt P18031).
T2 sequence (P18031 whole entry): T1 sequence (whole entry)
The experiment is described as §1.

Experiment [3] relates to Staphylococcus epidermidis. Description: Antibacterial activity against Staphylococcus epidermidis 42R assessed as reduction in bacterial growth incubated for 16 hrs by broth microdilution method. In kind it is functional. In general terms: In broth dilution the organism is exposed to a series of concentrations in liquid medium.
Experiment [4] deals with Staphylococcus aureus. Description: Antibacterial activity against Staphylococcus aureus assessed as reduction in bacterial growth incubated for 16 hrs by broth microdilution method. It counts as functional.
Experiment [5] concerns Acinetobacter baumannii. Kind of experiment: Antibacterial activity against pandrug-resistant Acinetobacter baumannii A564 assessed as bacterial growth inhibition at 50 ug/ml incubated for 16 hrs by broth microdilution method relative to control. It counts as functional. As to conditions: read-out: GI.

Broadly, the IC50 is the concentration at which inhibition is half-maximal. A higher IC50 goes with a need for much substance. For `CC[C@H](C)C[C@H](C)[C@@H](O)[C@@H](C)/C=C(\C)[C@@H](O)[C@@H](C)/C=C(\C)[C@@H](O)[C@@H](C)/C=C(\C)C=O`, the inhibition entry in experiment [1] is “Dose-Dependent Effect”. In experiment [2], this compound displayed a half-inhibitory concentration (IC50) of 27 µM.

The MIC is the lowest concentration that inhibits growth of the organism. In the case of `CCCCCCCC(=O)c1c(O)cc(O)cc1CC(=O)OCC` [CYTOSPORONE B], the values for the minimal inhibitory concentration (MIC) in experiment [3] and in experiment [4] were 21 µg/mL (≈ 65.1 µM) and 18 µg/mL (≈ 55.8 µM), respectively. The inhibition of growth at 50 µg/mL in experiment [5] worked out at 51%.
